Data from patent US20020022586A1, “Method for treating a patient with neoplasia by treatment with a pyrimidine analog” (priority 1998, published 2002).

Tests used:
[1] = tested on: premalignant lesions in mouse mammary gland organ culture; experiment: Mammary gland organ culture model; assay type: cell-based; details: activity profile; note: key: −: Not active; +: Slightly active; ++: Moderately active; +++: Strongly active; ++++: Highly active
Procedure: For example, female BALB/c mice can be treated with a combination of estradiol and progesterone daily, in order to prime the glands to be responsive to hormones in vitro. The animals are sacrificed and thoracic mammary glands are excised aseptically and incubated for ten days in growth media supplemented with insulin, prolactin, hydrocortisone, and aldosterone. DMBA (7,12-dimethylbenz(a)anthracene) is added to medium to induce the formation of premalignant lesions. Fully developed glands are then deprived of prolactin, hydrocortisone, and aldosterone, resulting in the regression of the glands but not the premalignant lesions.
The test compound is dissolved in DMSO and added to the culture media for the duration of the culture period. At the end of the culture period, the glands are fixed in 10% formalin, stained with alum carmine, and mounted on glass slides. The extent of the area occupied by the mammary lesions can be quantitated by projecting an image of the gland onto a digitation pad. The area covered by the gland is traced on the pad and considered as 100% of the area. The space covered by each of the unregressed structures is also outlined on the digitization pad and quantitated by the computer.
The incidence of forming mammary lesions is the ratio of the glands with mammary lesions to […]. The incidence of mammary lesions in test compound treated glands is compared with that of the untreated glands.
Mammary gland organ culture experiments were performed as previously described (Mehta and Moon, Cancer Research, 46: 5832-5835, 1986). […] The data support the hypothesis that cyclooxygenase inhibition is not necessary for the anti-neoplastic properties of desired compounds.

HT-29 cells [2] = experiment: Apoptosis by DNA fragmentation assay in HT-29 cells; assay type: cell-based, human; design: Apoptosis: key to the marks not given beside the values
COX = COX inhibition; assay type: biochemical
cGMP-PDE [3] = experiment: cGMP-PDE inhibition assay, enzyme from HT-29 tumor cells; assay type: biochemical, human; design: PDE Inhibition: key to the marks not given beside the values; details: activity profile
cGMP-PDE [4] = tested on: T1, cGMP-PDE; experiment: as above; assay type: biochemical, human; design: PDE Inhibition: key to the marks not given beside the values
T1 construct: other: 10 μM; other: 100 μM; other: enzyme from HT-29 cells; other: 20 μM

HT-29 cells [5] = experiment: HT-29 tumor cell growth inhibition, SRB assay; assay type: cell-based, human; design: Growth Inhibition: key to the marks not given beside the values
PDE4 = PDE4 inhibition assay, enzyme from HT-29 tumor cells; assay type: biochemical, human; details: enzyme from HT-29 cells
Procedure: Cyclic GMP labeled with tritium (^3H-cGMP) is used as the substrate for the PDE enzymes. (Thompson, W. J., Teraski, W. L., Epstein, P. M., Strada, S. J., Advances in Cyclic Nucleotide Research, 10:69-92, 1979, which is incorporated herein by reference).
In brief, a solution of defined substrate ^3H-cGMP specific activity is mixed with the drug to be tested. The mixture is incubated with isolated PDE activity (either a single PDE or a mixture of PDE activities). The degree of phosphodiesterase inhibition is determined by calculating the amount of radioactivity released in drug-treated reactions and comparing those against a control sample (a reaction mixture lacking the tested compound but with the drug solvent).
Reference compounds and test compounds were analyzed for their cGMP-PDE inhibitory activity in accordance with the protocol for the assay described supra. […] Both compounds show selectivity for the cGMP-PDE isoenzyme forms over PDE4 isoforms.

EC50 (HT-29 cells [2]; Homo sapiens, HT-29, 48 hours, DNA fragmentation, read-out: EC50 for apoptosis induction): ~175 µM
IC50 (cGMP-PDE [4]; enzyme from HT-29 cells): 18 µM
IC50 (PDE4): 58 µM
Compound: COc1cc(/C=C2/C(C)=C(CC(=O)O)c3cc(F)ccc32)cc(OC)c1OC [Compound B, (Z)-5-Fluoro-2-methyl-1-(3,4,5-trimethoxybenzylidene)-3-acetic acid]
Mammary Gland Organ Culture [1]: ++
fold induction at 100 µM (HT-29 cells [2]; Homo sapiens, HT-29, 100 μM, read-out: Apoptosis inducing activity, Fold induction at 100 μM): > 2
Apoptosis (HT-29 cells [2]; activity profile): +++
COX Inhibition (COX; 100 μM): did not inhibit COX
COX Inhibition (COX; activity profile): −
PDE Inhibition (cGMP-PDE [3]): +++
cGMP PDE % Inhibition at 100 μM (cGMP-PDE [4]; 100 μM): <25%
inhibition at 100 µM (HT-29 cells [5]; Homo sapiens, HT-29, 100 μM single dose, read-out: Growth inhibitory activity, % Inhibition at 100 μM): 77%
Growth Inhibition (HT-29 cells [5]; activity profile): +++
